Test results reported in paper PMC4038399, “Experimental validation of [sequence]^comb virtual ligand screening results for eight proteins yields novel nanomolar and micromolar binders” (Journal of Cheminformatics, 2014).
Converted amounts (≈) assume the structure as drawn. Like-named read-outs stand apart in the source and are kept apart here.

Experiments:
[1] = biological target: Catalytic subunit of cAMP-dependent protein kinase (cDPK) (Homo sapiens, UniProt P17612); assay: Thermal shift (thermal melt) assay, Sypro orange; type: binding, H. sapiens; conditions: for Kd: approximate, computed from the thermal shift
Protocol: (§1) High throughput thermal shift assays were carried out following established guidelines (Additional file 1: Table S1). Protein melting curves were obtained from samples aliquoted in 96-well plates using a RealPlex quantitative PCR instrument from Eppendorf (Eppendorf, NY, USA), with Sypro orange dye from Invitrogen as the fluorescent probe. A uniform final concentration of 5 X (supplied as a 5000 X stock solution) was used in all experiments. The dye was excited at 465 nm and emission recorded at 580 nm using the instrument’s filters. A heating ramp of 1°C/min from 25°C to 74°C was used, and one data point acquired for each degree increment. For standardization, different buffers and pH were checked. Thereafter, 100 mM HEPES pH 7.3 and 150 mM NaCl were used in all unfolding experiments. The volume of each reaction was 20 μl, and appropriate dye and protein controls were included. All experiments were done with a minimum of two replicates, with the mean value considered for further analysis. Several drugs/small molecules interact with Sypro orange and lead to aberrant signal enhancements. An additional control to rule out drug-dye interaction was carried out with all the constituents kept constant except for the protein of interest. The protein/protein-drug curves were reported after subtracting the respective dye alone/drug-dye curves.
(§2) Each melting curve was assigned a quality score (Q), the ratio of the melting-associated increase in fluorescence (ΔFmelt) to the total fluorescence range (ΔFtotal). Q = 1 is a high-quality curve, while Q = 0 indicates no thermal transition. Though an arbitrary Q value cutoff was not applied to judge curve quality, the curves were manually curated with Q values reported. […] These were ignored (see Table 1).
(§3) Subsequent to standardization, (see SI Methods), the validity of the top 1% of […]^comb’s predictions on the test set of eight diverse proteins was examined. To be conservative, we focused only on those protein/ligand pairs showing single sigmoidal thermal transition curves. The fit to Boltzmann’s equation (Eq. 1) was employed to estimate the melting temperature from the observed intensity, I.
(§4) (4) I=Imin+Imax-Imin/1+e^Tm-T/a
(§5) Imin and Imax are the minimum and maximum intensities; a denotes the slope of the curve at the transition midpoint temperate, Tm. To estimate thermodynamic parameters, both van’t Hoff and Gibbs-Helmholtz analyses were done. To estimate the approximate ligand-binding affinity at Tm, Eq. (2) from reference was used with slight modifications; ΔCp is ignored.
(§6) (5) KLTm=exp-ΔH/R1/Tm-1/To/L
(§7) KL(Tm) is the ligand association constant and [L] is the free ligand concentration at Tm ([LTm] ~ [L]total, when [L]total > > the total concentration of protein. KD is the inverse of KL(Tm).
(§8) Thermal unfolding of the eight benchmark proteins was carried out in a 20 μl reaction mix with 100 mM HEPES pH 7.3, 150 mM NaCl, 5 X Sypro orange dye, 10 μM protein and 1 mM of all the predicted ligands.

[2] = tested on: vancomycin-resistant E. faecium (ATCC700221) (VREF); assay: Antimicrobial assay (MIC); type: cell-based
Protocol: (§9) Antimicrobial and anti-cancer tests were performed as in [80].

[3] = tested on: HCT-116 colon carcinoma cell line; assay: Cytotoxic assay on cancer cell line; type: cell-based; conditions: for IC50: Homo sapiens, HCT-116, inhibitory concentration for 50% growth inhibition, read-out: HCT-116 (IC-50); for HCT-116 (IC-50): inhibitory concentration for 50% growth inhibition
Protocol: as §9

[4] = biological target: Nucleosome assembly protein 1 (NAP1) (Plasmodium knowlesi, UniProt A0A384KYS3); assay: Thermal shift (thermal melt) assay, Sypro orange; type: binding, P. knowlesi; conditions: for Kd: approximate, computed from the thermal shift
Protocol: as §1, §2, §3, §4, §5, §6, §7, §8

[5] = biological target: T1, Tryptophanyl tRNA synthetase (TrpRS) (Homo sapiens, UniProt P23381); assay: Thermal shift (thermal melt) assay, Sypro orange; type: binding, H. sapiens; conditions: for Q (quality score): ratio ΔFmelt/ΔFtotal
T1 sequence (P23381 1-471): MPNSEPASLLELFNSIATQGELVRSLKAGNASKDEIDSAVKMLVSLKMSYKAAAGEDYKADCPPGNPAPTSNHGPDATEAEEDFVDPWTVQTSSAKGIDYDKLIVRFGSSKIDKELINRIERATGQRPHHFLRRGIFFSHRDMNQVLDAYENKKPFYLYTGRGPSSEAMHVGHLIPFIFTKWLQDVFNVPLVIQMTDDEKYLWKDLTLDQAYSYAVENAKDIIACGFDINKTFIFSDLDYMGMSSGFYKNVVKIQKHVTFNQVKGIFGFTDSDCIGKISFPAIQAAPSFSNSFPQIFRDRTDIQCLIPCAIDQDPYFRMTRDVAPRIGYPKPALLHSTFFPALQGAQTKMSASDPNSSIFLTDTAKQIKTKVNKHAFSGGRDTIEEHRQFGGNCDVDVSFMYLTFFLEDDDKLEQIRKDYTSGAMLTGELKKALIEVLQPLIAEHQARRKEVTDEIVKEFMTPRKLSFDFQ
Protocol: as §1, with “The dye was excited at 465 nm and emission recorded at 580 nm using the instrument’s filters. A heating ramp of 1°C/min from 25°C to 74°C was used, and one data point acquired for each degree increment.” left out
(§10) Each melting curve was assigned a quality score (Q), the ratio of the melting-associated increase in fluorescence (ΔFmelt) to the total fluorescence range (ΔFtotal). Q = 1 is a high-quality curve, while Q = 0 indicates no thermal transition. Though an arbitrary Q value cutoff was not applied to judge curve quality, the curves were manually curated with Q values reported.
as §3, §4, §5, §6, §7, §8

[6] = biological target: E. coli dihydrofolate reductase (DHFR) (Escherichia coli, UniProt P0ABQ4); assay: biochemical; type: binding; conditions: Table S3
Protocol: as §1, with “The dye was excited at 465 nm and emission recorded at 580 nm using the instrument’s filters. A heating ramp of 1°C/min from 25°C to 74°C was used, and one data point acquired for each degree increment.” left out
as §10, §3, §4, §5, §6, §7, §8

[7] = thermal shift, 1 mM ligand, 10 μM protein

Sequence of Nucleosome assembly protein 1 (NAP1) (A0A384KYS3 entry or part of it): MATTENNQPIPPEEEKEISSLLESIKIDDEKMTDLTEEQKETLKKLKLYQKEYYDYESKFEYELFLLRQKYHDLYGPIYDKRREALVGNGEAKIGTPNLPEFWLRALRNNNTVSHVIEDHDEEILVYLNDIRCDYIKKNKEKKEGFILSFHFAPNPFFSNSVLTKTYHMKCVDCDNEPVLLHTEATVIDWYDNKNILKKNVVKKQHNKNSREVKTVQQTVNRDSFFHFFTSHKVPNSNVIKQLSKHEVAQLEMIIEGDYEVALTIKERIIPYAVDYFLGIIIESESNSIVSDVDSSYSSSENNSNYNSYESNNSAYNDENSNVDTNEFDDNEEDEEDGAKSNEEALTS
Sequence of E. coli dihydrofolate reductase (DHFR) (P0ABQ4 whole entry): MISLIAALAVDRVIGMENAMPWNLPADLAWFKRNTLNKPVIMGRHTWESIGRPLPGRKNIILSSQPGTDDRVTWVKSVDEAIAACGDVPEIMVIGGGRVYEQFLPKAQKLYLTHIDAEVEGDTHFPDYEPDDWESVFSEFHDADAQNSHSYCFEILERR

## COc1ccc(-c2cc3ccccc3[nH]2)cc1 [NSC 27032]
[1]
  Q (quality score of melting curve, ΔFmelt/ΔFtotal): 1.0
[1]; read-out: KD
  Kd: 48.5 µM
[1]; read-out: KD (Approx)
  Kd: 48.5 µM
[1]; [7]
  ΔTm: 2.95 °C

## CN(Cc1cnc2nc(N)nc(N)c2n1)c1ccc(C(=O)N[C@@H](CCC(=O)O)C(=O)O)cc1 [NSC 740, methotrexate]
[2]; Enterococcus faecium, ATCC700221
  MIC: 500 µg/mL (≈ 1100 µM)
[2]; Table S3
  VREF (MIC): 500 µg/mL
[3]
  IC50: 0.048 µg/mL (≈ 0.106 µM)

## O=C1c2cc(O)c(O)cc2OC(c2ccc(O)c(O)c2)C1O (stereo not shown) [NSC 36398]
[4]
  Q (quality score of melting curve, ΔFmelt/ΔFtotal): 0.2
[4]; read-out: KD
  Kd: 180 µM
[4]; read-out: KD (Approx)
  Kd: 180 µM
[4]; [7]
  ΔTm: 2.21 °C

## O=C1C[C@@H](c2ccc(O)cc2)Oc2cc(O)cc(O)c21 [NSC 34875]
[4]
  Q (quality score of melting curve, ΔFmelt/ΔFtotal): 0.6
[4]; Table S5, 1 mM ligand
  ΔTm: 1.74 °C
[4]; read-out: KD (Approx)
  Kd: 224 µM

## O=C(Nc1cccc([N+](=O)[O-])c1)c1cc2ccccc2cc1O [NSC 37168]
[5]; Table S4, TrpRS, computed from the thermal shifts obtained, read-out: KD (Approx)
  Kd: ~9.06 µM
[5]; Table S4, TrpRS, in °C (unit assumed)
  ΔTm: 9.9
[5]; Table S4, TrpRS
  Q (quality score): 0.4
[5]; approximate, computed from the thermal shift, read-out: KD
  Kd: ~9.1 µM
[3]
  HCT-116 (IC-50): 1.34 µg/mL

## Nc1ccc(-c2nc3nc(N)nc(N)c3nc2-c2ccc(N)cc2)cc1 [NSC 61642, 6,7-bis(4-aminophenyl) pteridine-2,4-diamine, reference compound]
[1]
  Q (quality score of melting curve, ΔFmelt/ΔFtotal): 0.4
[1]; Table S5, 1 mM ligand
  ΔTm: 0.71 °C
[1]; read-out: KD (Approx)
  Kd: 275 µM
[6]; computed from the thermal shifts obtained, read-out: KD (Approx)
  Kd: ~2.03 µM
[6]; ratio ΔFmelt/ΔFtotal of the melting curve
  Q (quality score): 0.6

## CCN(CC)CCNC(=O)c1c(C)[nH]c(/C=C2\C(=O)Nc3ccc(F)cc32)c1C [NSC 750690, Sunitinib, reference compound]
[5]; Table S4, TrpRS
  Q (quality score): 1.3
[5]; [7]
  ΔTm: 14.57 °C
[3]
  IC50: 1.1 µg/mL (≈ 2.76 µM)
  HCT-116 (IC-50): 1.11 µg/mL
